Results as given in the supplement of paper PMC10307832.

Columns and labels:
Assay in all cases: relative viability (nuclei count vs DMSO), 5 days (fraction); higher = more cells survive
HCC-827 = test system: HCC-827
Outline: (§1)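 Values are medians from duplicate plates. Each reflects relative viability, defined as the nuclei count of treated wells over that of vehicle wells. Lung cancer cell lines in 1536-well plates were pin-tool dosed one day after seeding with one drug alone or with a fixed anchor-drug dose plus five library-drug doses (not always all listed) in √10 steps, then fixed, stained and imaged at 4× after 5 days.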

NCI-H1437 = test system: NCI-H1437
Outline: as §1

SK-LU-1 = test system: SK-LU-1
Outline: as §1

NCI-H1755 = test system: NCI-H1755
Outline: as §1

NCI-H23 = test system: NCI-H23
Outline: as §1

HARA = test system: HARA
Outline: as §1

NCI-H727 = test system: NCI-H727
Outline: as §1

NCI-H1915 = test system: NCI-H1915
Outline: as §1

NCI-H1792 = test system: NCI-H1792
Outline: as §1

A-427 = test system: A-427
Outline: as §1

NCI-H460 = test system: NCI-H460
Outline: as §1

NCI-H1395 = test system: NCI-H1395
Outline: as §1

NCI-H2009 = test system: NCI-H2009
Outline: as §1

COR-L 105 = test system: COR-L 105
Outline: as §1

EMC-BAC-2 = test system: EMC-BAC-2
Outline: as §1

NCI-H2228 = test system: NCI-H2228
Outline: as §1

LCLC-103H = test system: LCLC-103H
Outline: as §1

CAL-12T = test system: CAL-12T
Outline: as §1

NCI-H522 = test system: NCI-H522
Outline: as §1

SW 1573 = test system: SW 1573
Outline: as §1

HOP-62 = test system: HOP-62
Outline: as §1

COc1cc2nccc(Oc3ccc(NC(=O)Nc4cc(C)on4)c(Cl)c3)c2cc1OC [Tivozanib] + CCNC(=O)c1noc(-c2cc(C(C)C)c(O)cc2O)c1-c1ccc(CN2CCOCC2)cc1 [Luminespib] (partner 0.01 µM)
relative viability (HCC-827; first compound 0.005 µM): 0.588 | relative viability (HCC-827; first compound 0.01581 µM): 0.63 | relative viability (HCC-827; first compound 0.05 µM): 0.413 | relative viability (HCC-827; first compound 0.1581 µM): 0.467 | relative viability (HCC-827; first compound 0.5 µM): 0.6 | relative viability (NCI-H1437; first compound 0.005 µM): 1.14 | relative viability (NCI-H1437; first compound 0.01581 µM): 1.11 | relative viability (NCI-H1437; first compound 0.05 µM): 1.13 | relative viability (NCI-H1437; first compound 0.1581 µM): 1.13 | relative viability (NCI-H1437; first compound 0.5 µM): 1.11 | relative viability (SK-LU-1; first compound 0.005 µM): 0.197 | relative viability (SK-LU-1; first compound 0.01581 µM): 0.211 | relative viability (SK-LU-1; first compound 0.05 µM): 0.201 | relative viability (SK-LU-1; first compound 0.1581 µM): 0.184 | relative viability (SK-LU-1; first compound 0.5 µM): 0.207 | relative viability (NCI-H1755; first compound 0.005 µM): 0.466 | relative viability (NCI-H1755; first compound 0.01581 µM): 0.346 | relative viability (NCI-H1755; first compound 0.05 µM): 0.406 | relative viability (NCI-H1755; first compound 0.1581 µM): 0.329 | relative viability (NCI-H1755; first compound 0.5 µM): 0.453 | relative viability (NCI-H23; first compound 0.01581 µM): 0.198 | relative viability (NCI-H23; first compound 0.05 µM): 0.193 | relative viability (NCI-H23; first compound 0.1581 µM): 0.206 | relative viability (NCI-H23; first compound 0.5 µM): 0.207 | relative viability (HARA; first compound 0.005 µM): 0.686 | relative viability (HARA; first compound 0.01581 µM): 0.795 | relative viability (HARA; first compound 0.05 µM): 0.75 | relative viability (HARA; first compound 0.1581 µM): 0.964 | relative viability (HARA; first compound 0.5 µM): 0.689 | relative viability (NCI-H727; first compound 0.005 µM): 0.349 | relative viability (NCI-H727; first compound 0.01581 µM): 0.59 | relative viability (NCI-H727; first compound 0.05 µM): 0.468 | relative viability (NCI-H727; first compound 0.1581 µM): 0.528 | relative viability (NCI-H727; first compound 0.5 µM): 0.609 | relative viability (NCI-H1915; first compound 0.005 µM): 0.719 | relative viability (NCI-H1915; first compound 0.01581 µM): 0.855 | relative viability (NCI-H1915; first compound 0.05 µM): 0.848 | relative viability (NCI-H1915; first compound 0.1581 µM): 0.799 | relative viability (NCI-H1915; first compound 0.5 µM): 0.8 | relative viability (NCI-H1792; first compound 0.005 µM): 0.457 | relative viability (NCI-H1792; first compound 0.01581 µM): 0.344 | relative viability (NCI-H1792; first compound 0.05 µM): 0.598 | relative viability (NCI-H1792; first compound 0.1581 µM): 0.415 | relative viability (NCI-H1792; first compound 0.5 µM): 0.551 | relative viability (A-427; first compound 0.005 µM): 1.09 | relative viability (A-427; first compound 0.01581 µM): 0.902 | relative viability (A-427; first compound 0.05 µM): 1.02 | relative viability (A-427; first compound 0.1581 µM): 0.836 | relative viability (A-427; first compound 0.5 µM): 1.01 | relative viability (NCI-H460; first compound 0.005 µM): 0.0252 | relative viability (NCI-H460; first compound 0.01581 µM): 0.0365 | relative viability (NCI-H460; first compound 0.05 µM): 0.0375 | relative viability (NCI-H460; first compound 0.1581 µM): 0.0404 | relative viability (NCI-H460; first compound 0.5 µM): 0.0362 | relative viability (NCI-H1395; first compound 0.005 µM): 0.654 | relative viability (NCI-H1395; first compound 0.01581 µM): 0.755 | relative viability (NCI-H1395; first compound 0.05 µM): 0.852 | relative viability (NCI-H1395; first compound 0.1581 µM): 0.706 | relative viability (NCI-H1395; first compound 0.5 µM): 0.688 | relative viability (NCI-H2009; first compound 0.005 µM): 1.04 | relative viability (NCI-H2009; first compound 0.01581 µM): 1.01 | relative viability (NCI-H2009; first compound 0.05 µM): 0.973 | relative viability (NCI-H2009; first compound 0.1581 µM): 1.04 | relative viability (NCI-H2009; first compound 0.5 µM): 0.984 | relative viability (COR-L 105; first compound 0.005 µM): 0.669 | relative viability (COR-L 105; first compound 0.01581 µM): 0.657 | relative viability (COR-L 105; first compound 0.05 µM): 1.07 | relative viability (COR-L 105; first compound 0.1581 µM): 0.734 | relative viability (COR-L 105; first compound 0.5 µM): 0.751 | relative viability (EMC-BAC-2; first compound 0.005 µM): 1.13 | relative viability (EMC-BAC-2; first compound 0.01581 µM): 1.18 | relative viability (EMC-BAC-2; first compound 0.05 µM): 1.26 | relative viability (EMC-BAC-2; first compound 0.1581 µM): 1.13 | relative viability (EMC-BAC-2; first compound 0.5 µM): 1.16 | relative viability (NCI-H2228; first compound 0.005 µM): 0.0873 | relative viability (NCI-H2228; first compound 0.01581 µM): 0.219 | relative viability (NCI-H2228; first compound 0.05 µM): 0.112 | relative viability (NCI-H2228; first compound 0.1581 µM): 0.185 | relative viability (NCI-H2228; first compound 0.5 µM): 0.109 | relative viability (LCLC-103H; first compound 0.005 µM): 0.847 | relative viability (LCLC-103H; first compound 0.01581 µM): 0.85 | relative viability (LCLC-103H; first compound 0.05 µM): 0.91 | relative viability (LCLC-103H; first compound 0.1581 µM): 0.964 | relative viability (LCLC-103H; first compound 0.5 µM): 0.921 | relative viability (CAL-12T; first compound 0.005 µM): 0.253 | relative viability (CAL-12T; first compound 0.01581 µM): 0.36 | relative viability (CAL-12T; first compound 0.05 µM): 0.573 | relative viability (CAL-12T; first compound 0.1581 µM): 0.276 | relative viability (CAL-12T; first compound 0.5 µM): 0.594 | relative viability (NCI-H522; first compound 0.005 µM): 0.903 | relative viability (NCI-H522; first compound 0.01581 µM): 1.01 | relative viability (NCI-H522; first compound 0.05 µM): 1.03 | relative viability (NCI-H522; first compound 0.1581 µM): 1.16 | relative viability (NCI-H522; first compound 0.5 µM): 1.22 | relative viability (SW 1573; first compound 0.005 µM): 0.644 | relative viability (SW 1573; first compound 0.01581 µM): 0.224 | relative viability (SW 1573; first compound 0.05 µM): 0.248 | relative viability (SW 1573; first compound 0.1581 µM): 0.226 | relative viability (SW 1573; first compound 0.5 µM): 0.343 | relative viability (HOP-62; first compound 0.005 µM): 0.857 | relative viability (HOP-62; first compound 0.01581 µM): 0.961 | relative viability (HOP-62; first compound 0.05 µM): 0.894 | relative viability (HOP-62; first compound 0.1581 µM): 0.932 | relative viability (HOP-62; first compound 0.5 µM): 0.918
